Reference: patent US6441053B1, “Inhibitors of glycogen synthase kinase-3 and methods for identifying and using the same” (The Trustees of the University of Pennsylvania, priority 1996, dated 2002)
Like-named read-outs stand apart in the source and are kept apart here.

Columns and labels:
[1] = biological target: GSK-3β (Oryctolagus cuniculus, UniProt G1T8E2); assay: In vitro GSK-3β activity assay (32P incorporation into substrate); format: biochemical, rabbit; settings: for inhibition of phosphorylation of peptide substrate by GSK-3β: 20 mM of the salt in the assay mixture; for GSK-3β phosphorylation of I-2: 20 mM salt, GS-2 and τ protein phosphorylation not inhibited
GSK-3β, sequence (G1T8E2 1-432): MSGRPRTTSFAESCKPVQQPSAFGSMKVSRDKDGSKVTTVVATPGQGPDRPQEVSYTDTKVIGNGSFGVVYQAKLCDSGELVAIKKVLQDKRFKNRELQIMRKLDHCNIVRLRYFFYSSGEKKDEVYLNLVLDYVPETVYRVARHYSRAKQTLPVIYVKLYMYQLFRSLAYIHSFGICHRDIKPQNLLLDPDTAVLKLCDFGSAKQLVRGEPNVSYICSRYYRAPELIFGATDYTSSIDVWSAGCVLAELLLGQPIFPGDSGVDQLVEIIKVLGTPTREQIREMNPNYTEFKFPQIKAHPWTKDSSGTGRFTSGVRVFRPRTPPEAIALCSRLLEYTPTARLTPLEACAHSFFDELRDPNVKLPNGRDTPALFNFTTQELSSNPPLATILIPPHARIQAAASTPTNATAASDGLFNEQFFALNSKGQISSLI
Experimental: GSK-3β was assayed as described in the following paragraph using 0.5-1.0 units of GSK-3β per assay. […] GSK-3 buffer comprises 20 mM Tris-HCl, 10 mM MgCl2, 5 mM dithiothreitol, and has a pH of 7.5 at 20° C.
The assay mixture comprised 1×GSK-3 buffer, an amount of a kinase enzyme corresponding to 0.5-1.0 unit of activity, a substrate, and 200 μM [γ^32P]-ATP (approximately 500 μCi/μmol). The assay mixture was incubated for a selected period of time following which incorporation of ^32P into the substrate was determined by standard methods.
When I-2 was used as the substrate for […] in the assay, I-2 was present at a concentration of 50 μg/ml. […] The activities of protein kinase A (PKA), mitogen-activating protein kinase (ERK-1/MAP kinase), and casein kinase II (CKII) were assayed under conditions similar to those used to assay […] activity, except that β-mercaptoethanol was included in the PKA assays.

[2] = biological target: T1, inositol monophosphatase (IMPase) (Xenopus laevis, UniProt P29219); assay: IMPase activity in vivo in injected ventral-vegetal blastomeres; settings: 10 nl of 5 mM L-690,330 microinjected into blastomeres
T1 construct: The thirty embryos were then lysed in 300 μl of IMPB; endogenous in cells; host or cells: Xenopus embryos (32-cell stage lysate supernatant; 8- to 16-cell stage embryos injected in vivo)
T1 sequence (P29219 whole entry): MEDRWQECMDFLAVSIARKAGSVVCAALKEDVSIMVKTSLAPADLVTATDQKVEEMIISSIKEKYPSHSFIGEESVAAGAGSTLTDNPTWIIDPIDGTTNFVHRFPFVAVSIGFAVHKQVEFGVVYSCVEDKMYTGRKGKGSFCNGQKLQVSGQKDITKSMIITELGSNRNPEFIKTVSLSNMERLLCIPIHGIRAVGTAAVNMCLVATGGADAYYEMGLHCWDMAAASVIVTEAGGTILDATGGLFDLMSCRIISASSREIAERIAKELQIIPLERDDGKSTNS
Experimental: Following dilution, 10 nl of the diluted ^3H-inositol-1-phosphate solution was injected into a single ventral-vegetal blastomere of an embryo which was at the 8- to 16-cell stage. […] The lysate was prepared and applied to Dowex columns as described above.

[3] = biological target: IMPase (Homo sapiens, UniProt P29218); settings: Atack et al., 1993; cited from earlier work
IMPase, sequence (P29218 whole entry): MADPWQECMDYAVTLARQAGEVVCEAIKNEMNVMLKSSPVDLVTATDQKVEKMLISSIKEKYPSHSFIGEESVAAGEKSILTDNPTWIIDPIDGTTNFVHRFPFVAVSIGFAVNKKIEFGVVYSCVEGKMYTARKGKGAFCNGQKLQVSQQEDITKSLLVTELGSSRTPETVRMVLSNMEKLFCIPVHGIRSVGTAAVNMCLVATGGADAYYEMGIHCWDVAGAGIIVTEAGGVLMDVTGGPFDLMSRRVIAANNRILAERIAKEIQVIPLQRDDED

[4] = test system: Xenopus laevis embryo; assay: Dorsalization and development of treated or microinjected Xenopus embryos; format: in vivo
Experimental: Xenopus eggs were fertilized in vitro according to well established protocols (Peng, 1991, in Appendix A of Methods in Cell Biology, Kay et al., eds., Academic Press Inc, San Diego). Microinjection of embryos was performed using embryos at the 1-cell to 32-cell stage, and a volume of 5-10 nl was injected into each embryo.
L-690,330 was dissolved in water to form a solution having a concentration of L-690,330 in the range of 0.1 to 10 mM, and 5 to 10 nl of the L-690,330 solution was injected into the ventral vegetal region of 4, 8, 16, and 32 cell embryos. All four cells of individual 4-cell embryos were injected in separate experiments.

[5] = biological target: T1, inositol monophosphatase (IMPase); assay: IMPase activity in lysates prepared from Xenopus embryos; format: biochemical
Experimental: Thirty Xenopus embryos at the 32-cell stage were washed with 1 ml of 50 mM Tris, pH 7.8, 250 mM KCl, 3 mM MgCl2 (IMPB). The thirty embryos were then lysed in 300 μl of IMPB. The lysate was centrifuged for 5 minutes at 20,000×g at 4° C. and the resulting lysate supernatant was recovered. […] Each lysate supernatant mixture was then incubated at room temperature for 5 minutes. One μl of ^3H-inositol-1-phosphate was added to each lysate supernatant mixture, and the incubation was continued for an additional 25 minutes. Each lysate supernatant mixture was then diluted with 1.0 ml of 0.1×MMR, boiled for 5 minutes, and applied to Dowex columns as described (Berridge et al., 1983, Biochem. J. 212:473-482). Inositol was not retained by the Dowex column, and inositol-1-phosphate was eluted by application of 3 ml of 0.1 M formic acid/1.5 M ammonium formate (Berridge et al., 1983, supra). Each assay was repeated two to four times, and similar results were obtained among all replicates.

[6] = test system: Xenopus embryos; assay: Second axis formation in Xenopus embryos injected with DN-GSK-3 mRNA with or without myo-inositol; format: in vivo, Xenopus laevis
Experimental: mRNA specifying DN-GSK-3 was microinjected into the subequatorial region of a ventral-vegetal blastomere in an embryo at the 16-cell stage. A volume of either 5 nl or 10 nl was microinjected depending upon the concentration of mRNA in the solution being microinjected. The same procedure was used to microinject myo-inositol into an embryo. In most experiments, 10 embryos were harvested at stage 8 to assess the level of DN-GSK-3protein expressed from the injected mRNA, and the level of DN-GSK-3protein in other embryos was assessed at stage 30-35.

SMILES: [Cl-].[Cs+] [CsCl]
- inhibition of phosphorylation of peptide substrate by GSK-3β [1]: Little inhibition

SMILES: [Cl-].[K+] [KCl]
- inhibition of phosphorylation of peptide substrate by GSK-3β [1]: Little inhibition
- GSK-3β phosphorylation of I-2 [1]: partially inhibited

SMILES: CC(Oc1ccc(O)cc1)(P(=O)(O)O)P(=O)(O)O [L-690,330]
- level of inhibition of IMPase activity in vivo compared with 10 nl of 0.3 M LiCl [2]: several times greater
- potency as inhibitor of IMPase activity relative to lithium [3]: approximately thousand-fold
- dorsalization of Xenopus embryo ([4]; 0.3 M LiCl for 6 minutes at 32-cell stage, or injection of 10 nl of 5 mM L-690,330): did not exhibit dorsalization
- toxicity in microinjected embryos ([4]; highest doses of L-690,330 used): mild nonspecific toxicity
- effect on development of Xenopus embryos ([4]; microinjected embryos): no discernible effect
- IC50 ([5]; read-out: concentration giving 50% inhibition of in vitro IMPase activity, lysates prepared from Xenopus embryos): ~1 µM
- IC50 ([5]; read-out: concentration of L-690,330 giving approximately 50% inhibition of IMPase activity, FIG. 1 Panel A legend): ~1000 µM

SMILES: Cl.N [NH4Cl]
- inhibition of phosphorylation of peptide substrate by GSK-3β [1]: Little inhibition

SMILES: [Cl-].[Na+] [NaCl]
- inhibition of phosphorylation of peptide substrate by GSK-3β [1]: Little inhibition
- GSK-3β phosphorylation of I-2 [1]: partially inhibited

SMILES: Cn1cc(C2=C(c3cn(CCCSC(=N)N)c4ccccc34)C(=O)NC2=O)c2ccccc21 [Ro31-8220]
- IC50 ([1]; read-out: concentration giving approximately 50% inhibition of GSK-3β activity, assays of Example 1, 0 to 10 μM tested): ~0.04 µM

SMILES: O[C@H]1[C@H](O)[C@@H](O)[C@H](O)[C@@H](O)[C@H]1O [myo-inositol]
- effect of coinjection on second axis induction by DN-GSK-3 ([6]; coinjected with DN-GSK-3 mRNA into ventral-vegetal cell of 16-cell embryos): clearly reduced the frequency and the extent of second axis induction
- effect on synthesis of DN-GSK-3 protein ([6]; in vivo): did not inhibit
